A value given as a limit tells only on which side of the number the result lay.

This note sets out measurements from patent publication US9580416B2, “Inhibitors of Bruton's tyrosine kinase” (PHARMACYCLICS LLC, priority 2014, dated 2017).

Holding throughout (type): biochemical
The target of one experiment is Btk (Homo sapiens, UniProt Q06187). Put plainly: Btk kinase activity, TR-FRET assay. The conditions noted are these: read-out: Btk (IC50). The method, boiled down:
(§1)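 Enzyme (Btk 0.5 nM; Lck 6 nM) reacted 1 h with inhibitor, ATP at Km and biotin-peptide substrate in pH 7.4 buffer, 10% DMSO. Phosphopeptide detected by Eu-p-Tyr100 antibody plus streptavidin-APC (665/615 nm). IC50 calculated from fitted Ki(app) via ATP/Km correction plus half total enzyme.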
In general terms: In TR-FRET formats the signal depends on donor and acceptor labels being close together.

The target in another experiment is Lck (Homo sapiens, UniProt P06239). The experiment can be described thus: Lck kinase activity, TR-FRET assay. The conditions noted are these: read-out: LCK (IC50). The method, boiled down: as §1
For the next experiment, the target named is EGFR (Homo sapiens, UniProt P00533). Put plainly: Inhibition of a panel of kinases, in vitro HotSpot kinase assay: EGFR. How it is done: (§2) The degree of inhibition of a panel of kinases is determined using the in vitro HotSpot kinase assay (purified enzymes, ^33P-ATP, an appropriate substrate and 1 uM ATP).
The target of another experiment is T1, JAK3 (Homo sapiens, UniProt P52333).
T1 sequence (P52333 1-1124): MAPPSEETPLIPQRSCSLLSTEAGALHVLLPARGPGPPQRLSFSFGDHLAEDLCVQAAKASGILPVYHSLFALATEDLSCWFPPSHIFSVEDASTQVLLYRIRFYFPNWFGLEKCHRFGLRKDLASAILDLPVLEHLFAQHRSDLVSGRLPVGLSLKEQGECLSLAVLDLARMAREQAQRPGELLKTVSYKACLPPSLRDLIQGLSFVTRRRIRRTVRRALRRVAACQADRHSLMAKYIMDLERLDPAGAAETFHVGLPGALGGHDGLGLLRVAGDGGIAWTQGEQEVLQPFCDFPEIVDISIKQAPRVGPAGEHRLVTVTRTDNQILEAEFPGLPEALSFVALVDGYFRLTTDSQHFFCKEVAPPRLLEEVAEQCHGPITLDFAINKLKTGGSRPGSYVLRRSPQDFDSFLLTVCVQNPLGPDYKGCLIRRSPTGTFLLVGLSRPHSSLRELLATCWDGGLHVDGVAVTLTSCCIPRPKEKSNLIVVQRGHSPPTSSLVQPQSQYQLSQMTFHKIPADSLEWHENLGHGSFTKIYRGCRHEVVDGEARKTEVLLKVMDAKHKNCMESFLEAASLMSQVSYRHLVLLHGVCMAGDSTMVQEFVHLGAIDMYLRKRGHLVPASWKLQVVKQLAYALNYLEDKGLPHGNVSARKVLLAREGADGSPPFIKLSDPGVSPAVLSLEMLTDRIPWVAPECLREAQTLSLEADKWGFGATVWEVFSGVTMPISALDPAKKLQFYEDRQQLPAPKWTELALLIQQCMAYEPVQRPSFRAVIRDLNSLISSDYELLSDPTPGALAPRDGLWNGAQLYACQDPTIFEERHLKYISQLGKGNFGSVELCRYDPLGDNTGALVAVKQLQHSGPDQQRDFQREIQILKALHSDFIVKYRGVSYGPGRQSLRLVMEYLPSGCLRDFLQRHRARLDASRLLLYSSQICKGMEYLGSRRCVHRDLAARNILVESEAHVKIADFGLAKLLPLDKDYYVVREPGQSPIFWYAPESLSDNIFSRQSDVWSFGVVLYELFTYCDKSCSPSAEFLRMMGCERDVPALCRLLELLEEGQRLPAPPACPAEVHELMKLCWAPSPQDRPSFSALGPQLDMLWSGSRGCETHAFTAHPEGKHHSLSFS
Put plainly: Inhibition of a panel of kinases, in vitro HotSpot kinase assay: JAK3. How it is done:
as §2

Chain of EGFR (P00533 25-1210): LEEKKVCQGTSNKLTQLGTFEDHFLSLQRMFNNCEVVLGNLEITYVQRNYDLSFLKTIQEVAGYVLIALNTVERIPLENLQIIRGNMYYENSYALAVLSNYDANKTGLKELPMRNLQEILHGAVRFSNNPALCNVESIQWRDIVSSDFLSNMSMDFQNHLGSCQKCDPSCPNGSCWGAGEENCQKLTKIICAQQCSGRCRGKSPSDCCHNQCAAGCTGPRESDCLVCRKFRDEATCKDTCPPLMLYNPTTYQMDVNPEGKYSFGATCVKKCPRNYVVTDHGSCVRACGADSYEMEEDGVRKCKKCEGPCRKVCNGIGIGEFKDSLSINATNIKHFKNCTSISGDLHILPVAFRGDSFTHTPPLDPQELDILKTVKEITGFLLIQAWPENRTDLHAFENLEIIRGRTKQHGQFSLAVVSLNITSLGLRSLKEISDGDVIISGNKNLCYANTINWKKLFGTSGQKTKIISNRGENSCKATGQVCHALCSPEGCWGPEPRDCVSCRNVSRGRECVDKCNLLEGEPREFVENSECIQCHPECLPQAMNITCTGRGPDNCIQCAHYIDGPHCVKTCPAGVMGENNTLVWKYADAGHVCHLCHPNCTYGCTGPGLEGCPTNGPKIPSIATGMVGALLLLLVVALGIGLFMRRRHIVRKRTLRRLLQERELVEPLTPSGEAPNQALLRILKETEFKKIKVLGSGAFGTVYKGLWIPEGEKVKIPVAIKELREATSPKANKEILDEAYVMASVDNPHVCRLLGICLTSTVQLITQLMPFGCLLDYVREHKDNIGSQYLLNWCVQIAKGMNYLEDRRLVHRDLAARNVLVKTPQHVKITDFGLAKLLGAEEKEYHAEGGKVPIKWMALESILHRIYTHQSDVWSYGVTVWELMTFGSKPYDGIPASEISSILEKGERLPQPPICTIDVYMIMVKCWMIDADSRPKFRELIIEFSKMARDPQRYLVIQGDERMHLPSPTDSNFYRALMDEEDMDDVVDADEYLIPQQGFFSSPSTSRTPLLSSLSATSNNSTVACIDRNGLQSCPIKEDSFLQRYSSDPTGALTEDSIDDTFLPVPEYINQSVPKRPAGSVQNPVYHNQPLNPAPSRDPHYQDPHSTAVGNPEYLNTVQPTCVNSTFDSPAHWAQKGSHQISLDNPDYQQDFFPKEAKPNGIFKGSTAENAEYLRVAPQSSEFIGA
Chain of Btk (Q06187 whole entry): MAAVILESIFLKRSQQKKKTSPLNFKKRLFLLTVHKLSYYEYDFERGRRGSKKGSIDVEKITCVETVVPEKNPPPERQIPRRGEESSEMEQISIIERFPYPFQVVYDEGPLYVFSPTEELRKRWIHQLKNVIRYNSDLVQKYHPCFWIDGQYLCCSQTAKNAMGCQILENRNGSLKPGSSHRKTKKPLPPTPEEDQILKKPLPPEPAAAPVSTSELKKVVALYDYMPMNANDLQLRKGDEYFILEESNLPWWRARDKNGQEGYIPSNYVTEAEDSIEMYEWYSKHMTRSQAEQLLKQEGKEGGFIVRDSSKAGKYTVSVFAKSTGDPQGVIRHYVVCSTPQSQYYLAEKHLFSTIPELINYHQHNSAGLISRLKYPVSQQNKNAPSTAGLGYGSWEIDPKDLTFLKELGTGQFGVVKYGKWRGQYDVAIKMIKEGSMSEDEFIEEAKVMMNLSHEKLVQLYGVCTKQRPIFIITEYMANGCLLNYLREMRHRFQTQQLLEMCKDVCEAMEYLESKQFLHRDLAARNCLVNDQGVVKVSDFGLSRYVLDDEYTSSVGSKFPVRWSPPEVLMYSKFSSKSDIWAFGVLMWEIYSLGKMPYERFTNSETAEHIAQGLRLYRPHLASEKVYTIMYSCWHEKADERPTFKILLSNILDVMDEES
Chain of Lck (P06239 whole entry, species assumed): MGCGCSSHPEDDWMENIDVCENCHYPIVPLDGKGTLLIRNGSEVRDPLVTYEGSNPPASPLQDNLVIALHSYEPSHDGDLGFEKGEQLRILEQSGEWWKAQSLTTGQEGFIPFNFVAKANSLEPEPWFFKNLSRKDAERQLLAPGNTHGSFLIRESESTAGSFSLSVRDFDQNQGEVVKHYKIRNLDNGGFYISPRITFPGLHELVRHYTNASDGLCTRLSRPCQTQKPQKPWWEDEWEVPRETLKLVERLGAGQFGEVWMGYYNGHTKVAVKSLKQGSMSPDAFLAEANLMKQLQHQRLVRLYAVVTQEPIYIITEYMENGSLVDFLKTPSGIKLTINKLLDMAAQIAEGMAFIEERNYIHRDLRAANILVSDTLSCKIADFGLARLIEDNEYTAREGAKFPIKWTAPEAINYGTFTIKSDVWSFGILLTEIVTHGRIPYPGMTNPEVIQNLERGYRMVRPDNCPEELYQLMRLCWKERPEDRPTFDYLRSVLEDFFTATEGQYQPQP

Take `C=CC(=O)N1CCC[C@@H](Nc2n[nH]c3nccc(Oc4cccc(C(=O)Nc5cc(C(F)(F)F)ccn5)c4)c23)C1` [compound 191]: the IC50 (commonly the concentration needed to halve the response being measured) at Btk is less than 100 nM; on Lck, 100 to 1000 nM; against EGFR it was less than 100 nM; at JAK3, less than 100 nM.
Take `C=CC(=O)N1CCC[C@@H](Nc2n[nH]c3nccc(Oc4ccc(-c5nc6ccccc6s5)cc4)c23)C1` [compound 192]: the IC50 on Btk was less than 100 nM; on Lck, 100 to 1000 nM; against EGFR, 100 to 1000 nM; at JAK3, 100 to 1000 nM.
As to `C=CC(=O)N1CCC[C@@H](Nc2n[nH]c3nccc(Oc4ccc(-c5nc6ccccc6o5)cc4)c23)C1` [compound 194, 1-[(3R)-3-({4-[4-(1,3-benzoxazol-2-yl)phenoxy]-1H-pyrazolo[3,4-b]pyridin-3-yl}amino)piperidin-1-yl]prop-2-en-1-one], the 50% inhibitory concentration (IC50) on Btk is less than 100 nM; at Lck, 1000 to 10000 nM; at EGFR, 1000 to 10000 nM; against JAK3, 100 to 1000 nM.
With `Cc1cnc(NC(=O)c2ccc(Oc3ccnc4[nH]nc(N[C@@H]5CCCN(C(=O)/C=C/CN(C)C)C5)c34)cc2)s1` [compound 198, 4-[(3-{[(3R)-1-[(2E)-4-(dimethylamino)but-2-enoyl]piperidin-3-yl]amino}-1H-pyrazolo[3,4-b]pyridin-4-yl)oxy]-N-(5-methyl-1,3-thiazol-2-yl)benzamide], the half-inhibitory concentration (IC50) is less than 100 nM at Btk, 100 to 1000 nM on Lck, 1000 to 10000 nM on EGFR and more than 10000 nM at JAK3.
The matching figures for `CN1CCC(C(=O)N2CC[C@@H](Nc3n[nH]c4nccc(Oc5ccc(C(=O)Nc6cc(C(F)(F)F)ccn6)cc5)c34)C2)CC1` [compound 199, 4-[(3-{[1-(1-methylpiperidin-4-carbonyl)pyrrolidin-3-yl]amino}-1H-pyrazolo[3,4-b]pyridin-4-yl)oxy]-N-[4-(trifluoromethyl)pyridin-2-yl]benzamide]: less than 100 nM, 100 to 1000 nM, 100 to 1000 nM and more than 10000 nM.
For `Cc1cnc(NC(=O)c2ccc(Oc3ccnc4[nH]nc(N[C@@H]5CCN(C(=O)C6CC6)C5)c34)cc2)s1` [compound 200, 4-[(3-{[(3R)-1-cyclopropanecarbonylpyrrolidin-3-yl]amino}-1H-pyrazolo[3,4-b]pyridin-4-yl)oxy]-N-(5-methyl-1,3-thiazol-2-yl)benzamide] the same measures were less than 100 nM, 1000 to 10000 nM, 1000 to 10000 nM and more than 10000 nM.
The matching figures for `C=CC(=O)N1CCC[C@@H](Nc2n[nH]c3nccc(Oc4ccc(NC(=O)Nc5cc(C(F)(F)F)ccn5)cc4)c23)C1` [compound 201, 1-{4-[(3-{[(3R)-1-(prop-2-enoyl)piperidin-3-yl]amino}-1H-pyrazolo[3,4-b]pyridin-4-yl)oxy]phenyl}-3-[4-(trifluoromethyl)pyridin-2-yl]urea]: less than 100 nM, less than 100 nM, less than 100 nM and less than 100 nM.
For `Cc1cnc(NC(=O)c2ccc(Oc3ccnc4[nH]nc(N[C@@H]5CCN(C(=O)CCCN(C)C)C5)c34)cc2)s1` [compound 202, 4-[(3-{[(3R)-1-[4-(dimethylamino)butanoyl]pyrrolidin-3-yl]amino}-1H-pyrazolo[3,4-b]pyridin-4-yl)oxy]-N-(5-methyl-1,3-thiazol-2-yl)benzamide], the half-maximal inhibitory concentration (IC50) at Btk was less than 100 nM; on Lck it was 1000 to 10000 nM; against EGFR, more than 10000 nM; at JAK3 it was more than 10000 nM.
`C=CC(=O)N1CCC[C@@H](Nc2n[nH]c3nccc(Oc4ccc(C(=O)Nc5cc(C(F)(F)F)ccn5)cc4)c23)C1` [compound 203, 4-[(3-{[(3R)-1-(prop-2-enoyl)piperidin-3-yl]amino}-1H-pyrazoo[3,4-b]pyridin-4-yl)oxy]-N-[4-(trifluoromethyl)pyridin-2-yl]benzamide]: the 50% inhibitory concentration (IC50) at Btk was less than 100 nM; on Lck, 100 to 1000 nM; against EGFR, less than 100 nM; at JAK3, 100 to 1000 nM.
With `CN1CCC(C(=O)N2CCC[C@@H](Nc3n[nH]c4nccc(Oc5ccc(C(=O)Nc6cc(C(F)(F)F)ccn6)cc5)c34)C2)CC1` [compound 204, 4-[(3-{[(3R)-1-(1-methylpiperidine-4-carbonyl)piperidin-3-yl]amino}-1H-pyrazolo[3,4-b]pyridin-4-yl)oxy]-N-[4-(trifluoromethyl)pyridin-2-yl]benzamide], the IC50 was less than 100 nM at Btk, less than 100 nM at Lck, 1000 to 10000 nM on EGFR and more than 10000 nM at JAK3.
As to `CC#CC(=O)N1CCC[C@@H](Nc2n[nH]c3nccc(Oc4ccc(C(=O)Nc5cc(C(F)(F)F)ccn5)cc4)c23)C1` [compound 205, 4-[(3-{[(3R)-1-(but-2-ynoyl)piperidin-3-yl]amino}-1H-pyrazolo[3,4-b]pyridin-4-yl)oxy]-N-[4-(trifluoromethyl)pyridin-2-yl]benzamide], the half-inhibitory concentration (IC50) is less than 100 nM at Btk, 100 to 1000 nM on Lck, 1000 to 10000 nM on EGFR and more than 10000 nM on JAK3.
The matching figures for `CCNC(=O)N1CCC[C@@H](Nc2n[nH]c3nccc(Oc4ccc(C(=O)Nc5cc(C(F)(F)F)ccn5)cc4)c23)C1` [compound 207, (3R)-N-ethyl-3-{[4-(4-{[4-(trifluoromethyl)pyridin-2-yl]carbamoyl}phenoxy)-1H-pyrazolo[3,4-b]pyridin-3-yl]amino}piperidine-1-carboxamide]: less than 100 nM, 100 to 1000 nM, 1000 to 10000 nM and more than 10000 nM.
For `O=C(Nc1cc(C(F)(F)F)ccn1)c1ccc(Oc2ccnc3[nH]nc(N[C@@H]4CCN(C(=O)C5CC5)C4)c23)cc1` [compound 215, 4-[(3-{[(3R)-1-cyclopropanecarbonylpyrrolidin-3-yl]amino}-1H-pyrazolo[3,4-b]pyridin-4-yl)oxy]-N-[4-(trifluoromethyl)pyridin-2-yl]benzamide] the same measures were less than 100 nM, 1000 to 10000 nM, more than 10000 nM and more than 10000 nM.
The matching figures for `CCNC(=O)N1CCC[C@@H](Nc2n[nH]c3nccc(Oc4ccc(-c5nc6ccccc6s5)cc4)c23)C1` [compound 216, (3R)-3-({4-[4-(1,3-benzothiazol-2-yl)phenoxy]-1H-pyrazolo[3,4-b]pyridin-3-yl}amino)-N-ethylpiperidine-1-carboxamide]: 100 to 1000 nM, 1000 to 10000 nM, more than 10000 nM and more than 10000 nM.
For the compound `Cc1cnc(NC(=O)c2ccc(Oc3ccnc4[nH]nc(C5CCCN(C(=O)C6CCN(C)CC6)C5)c34)cc2)s1` (centres unmarked) [compound 217, N-(5-methyl-1,3-thiazol-2-yl)-4-({3-[1-(1-methylpiperidine-4-carbonyl)piperidin-3-yl]-1H-pyrazolo[3,4-b]pyridin-4-yl}oxy)benzamide], the IC50 is 100 to 1000 nM at Btk, 1000 to 10000 nM on Lck, 1000 to 10000 nM at EGFR and more than 10000 nM against JAK3.
With `O=C(Nc1cc(C(F)(F)F)ccn1)c1ccc(Oc2ccnc3[nH]nc(C4CCCN(C(=O)C5CC5)C4)c23)cc1` (centres unmarked) [compound 218, 4-{[3-(1-cyclopropanecarbonylpiperidin-3-yl)-1H-pyrazolo[3,4-b]pyridin-4-yl]oxy}-N-[4-(trifluoromethyl)pyridin-2-yl]benzamide], the concentration for half-maximal inhibition (IC50) was 100 to 1000 nM at Btk, 1000 to 10000 nM on Lck, 1000 to 10000 nM against EGFR and more than 10000 nM on JAK3.
For `CCC(=O)N1CCC[C@@H](Nc2n[nH]c3nccc(Oc4ccc(-c5nc6cccc(C)c6o5)cc4)c23)C1` [compound 219, 1-[(3R)-3-({4-[4-(7-methyl-1,3-benzoxazol-2-yl)phenoxy]-1H-pyrazolo[3,4-b]pyridin-3-yl}amino)piperidin-1-yl]propan-1-one], the IC50 on Btk, on Lck, at EGFR and on JAK3 was more than 10000 nM in each case.
